Test results reported in PubChem BioAssay AID1224921 (Broad Institute, 2016).
Calls of active or inactive are those of the source. No rule for the calls is given here.

System: Clostridioides difficile clinical isolate growth, OD600, 24 h
Experiment: C. difficile growth inhibition, confirmation, 4-point retest (AID 1224921)

Row | SMILES | AC50
1 | Cc1ccc(S(=O)(=O)N2C[C@@H](O)COC[C@H]3O[C@H](CC(=O)NCc4ccc(Cl)c(Cl)c4)CC[C@@H]32)cc1 | > 60 µM (inactive)
2 | C[C@@H]1CN([C@H](C)CO)S(=O)(=O)c2ccc(C#Cc3cccc(F)c3)cc2O[C@H]1CN(C)C | > 60 µM (inactive)
3 | CC(=O)N[C@@H]1CC[C@@H](CCNC(=O)Nc2ccc(C(F)(F)F)cc2)O[C@H]1CO | 12.7 µM
4 | C[C@@H]1CCCCO[C@@H](CN(C)CC2CCCCC2)[C@@H](C)CN([C@@H](C)CO)C(=O)c2cc(NC(=O)Nc3ccc(C(F)(F)F)cc3)ccc2O1 | 10.7 µM
5 | COc1ccc(CN(C)C[C@@H]2OCCCC[C@H](C)Oc3ccc(NC(=O)Nc4ccc(C(F)(F)F)cc4)cc3C(=O)N([C@H](C)CO)C[C@H]2C)cc1 | 3.24 µM
6 | O=C(C[C@@H]1CC[C@H]2[C@@H](COC[C@@H](O)CN2C(=O)Nc2ccc(C(F)(F)F)cc2)O1)NCC1CCCCC1 | 3.56 µM
7 | CN(C)CC(=O)N[C@@H]1CC[C@@H](CCNC(=O)Nc2ccc(C(F)(F)F)cc2)O[C@@H]1CO | 4.58 µM
8 | C[C@@H]1CN([C@@H](C)CO)C(=O)c2cc(NC(=O)Nc3ccc(C(F)(F)F)cc3)ccc2O[C@@H](C)CCCCO[C@H]1CN(C)Cc1ccc2c(c1)OCO2 | 23.9 µM
9 | CCC(=O)N[C@@H]1CC[C@H](CCNC(=O)Nc2ccc(C(F)(F)F)cc2)O[C@@H]1CO | 4.29 µM
10 | CO[C@H](CN(C)Cc1cc(F)ccc1F)[C@@H](C)CN(C(=O)Nc1ccc(C(F)(F)F)cc1)[C@H](C)CO | 6.43 µM
11 | CO[C@@H]1CN(C)C(=O)c2cc(NC(=O)Nc3cc(Cl)cc(Cl)c3)ccc2OC[C@H](C)NC[C@@H]1C | 9.05 µM
12 | C[C@H](CO)N1C[C@H](C)[C@@H](CN(C)Cc2ccc(-c3ccccc3)cc2)Oc2c(NC(=O)c3ccncc3)cccc2C1=O | 6.59 µM
13 | COc1ccc(CN(C)C[C@H]2OCCCC[C@H](C)Oc3ccc(NC(=O)Nc4ccc(C(F)(F)F)cc4)cc3C(=O)N([C@@H](C)CO)C[C@@H]2C)cc1 | 16.6 µM
14 | Cc1noc(C)c1S(=O)(=O)Nc1ccc2c(c1)C(=O)N([C@@H](C)CO)C[C@H](C)[C@@H](CN(C)Cc1ccc3c(c1)OCO3)OCCCC[C@@H](C)O2 | 11.7 µM
15 | O=C(C[C@H]1CC[C@@H]2[C@H](COC[C@@H](O)CN2C(=O)Nc2ccc(Cl)c(Cl)c2)O1)NCc1ccc(Cl)cc1 | 3.67 µM
16 | CN(C)CC(=O)N[C@@H]1CC[C@@H](CCNC(=O)Nc2ccc(C(F)(F)F)cc2)O[C@H]1CO | 4.63 µM
17 | CO[C@H](CN(C)C(=O)C1CCOCC1)[C@@H](C)CN(C(=O)Nc1ccc(C(F)(F)F)cc1)[C@@H](C)CO | 3.16 µM
18 | CO[C@H]1CN(C)C(=O)c2ccc(NC(=O)Nc3cc(Cl)cc(Cl)c3)cc2OC[C@@H](C)NC[C@H]1C | 15.1 µM
19 | CNC(=O)C[C@H]1CC[C@H]2[C@@H](COC[C@@H](O)CN2C(=O)Nc2ccc(Cl)c(Cl)c2)O1 | 2.75 µM
20 | CO[C@@H](CN(C)Cc1cc(F)ccc1F)[C@H](C)CN(C(=O)Nc1ccc(C(F)(F)F)cc1)[C@@H](C)CO | 3.71 µM
21 | CO[C@H]1CN(C)C(=O)c2cc(NC(=O)Nc3cc(Cl)cc(Cl)c3)ccc2OC[C@H](C)NC[C@@H]1C | 9.09 µM
22 | C[C@@H]1CN([C@H](C)CO)S(=O)(=O)c2ccc(C#CC3CCCCC3)cc2O[C@@H]1CN(C)C | 16.9 µM
23 | C[C@@H]1CN([C@@H](C)CO)C(=O)c2cccc(NC(=O)Nc3ccccc3)c2O[C@@H]1CN(C)Cc1ccc(C(F)(F)F)cc1 | 8.02 µM
24 | C[C@@H]1CCCCO[C@@H](CN(C)Cc2ccccc2)[C@H](C)CN([C@H](C)CO)C(=O)c2cc(NC(=O)Nc3ccc(C(F)(F)F)cc3)ccc2O1 | 21.9 µM
25 | C[C@@H]1CN([C@@H](C)CO)C(=O)c2cc(NC(=O)C3CC3)ccc2O[C@@H]1CN(C)C(=O)Nc1ccc(C(F)(F)F)cc1 | 8.92 µM
26 | C[C@@H]1CN([C@H](C)CO)S(=O)(=O)c2ccc(/C=C/c3ccccc3)cc2O[C@H]1CN(C)Cc1ccc(C(=O)O)cc1 | < 0.5 µM

Row | SMILES | AC50
27 | C[C@@H]1CN([C@@H](C)CO)S(=O)(=O)c2ccc(/C=C/c3ccccc3)cc2O[C@H]1CN(C)Cc1ccc(C(=O)O)cc1 | 1.35 µM
28 | CO[C@@H]1CN(C)C(=O)c2ccc(NC(=O)c3ccccc3)cc2OC[C@H](C)N(C(=O)C2CC2)C[C@H]1C | > 60 µM (inactive)
29 | C[C@H]1CN([C@@H](C)CO)C(=O)c2cc(C#CCc3ccccc3)cnc2O[C@@H]1CN(C)CC1CCCC1 | 29.7 µM
30 | O=C(C[C@@H]1CC[C@H]2[C@@H](COC[C@@H](O)CN2S(=O)(=O)c2ccc(Cl)cc2)O1)NCC1CCCCC1 | 15.8 µM
31 | CCS(=O)(=O)N1[C@H](CO)[C@H](c2ccc(C#CCC3CCCC3)cc2)[C@@H]1C#N | 19.8 µM
32 | O=C(NCC[C@@H]1CC[C@H](NC(=O)C2CC2)[C@@H](CO)O1)Nc1ccc(C(F)(F)F)cc1 | 1.95 µM
33 | COc1ccc(CN(C)C[C@H]2OCCCC[C@@H](C)Oc3ccc(NC(=O)Nc4ccc(C(F)(F)F)cc4)cc3C(=O)N([C@@H](C)CO)C[C@@H]2C)cc1 | 4.74 µM
34 | CO[C@H](CN(C)Cc1cc(F)ccc1F)[C@H](C)CN(C(=O)Nc1ccc(C(F)(F)F)cc1)[C@H](C)CO | 10.3 µM
35 | O=C(C[C@@H]1CC[C@H]2[C@@H](COC[C@@H](O)CN2C(=O)Nc2ccc(Cl)c(Cl)c2)O1)NCc1ccc(Cl)cc1 | 1.04 µM
36 | C[C@@H](NC(=O)C[C@@H]1CC[C@@H]2[C@H](COC[C@H](O)CN2C(=O)Nc2cc(Cl)cc(Cl)c2)O1)c1ccccc1 | 9.64 µM
37 | C[C@@H]1CN([C@@H](C)CO)C(=O)c2cccc(NC(=O)Nc3ccc(C(F)(F)F)cc3)c2O[C@@H]1CN(C)Cc1ccccc1 | 3.65 µM
38 | CN(C)CC(=O)N[C@@H]1C=C[C@@H](CC(=O)NCCN2CCCCC2)O[C@H]1CO | > 60 µM (inactive)
39 | O=C(NCC[C@H]1CC[C@H](NS(=O)(=O)c2ccc(F)cc2)[C@@H](CO)O1)Nc1ccc(Cl)cc1 | 16.7 µM
40 | CO[C@H](CN(C)S(=O)(=O)c1cn(C)cn1)[C@@H](C)CN(C(=O)Nc1ccc(C(F)(F)F)cc1)[C@@H](C)CO | 2.93 µM
41 | C[C@@H]1CN([C@@H](C)CO)C(=O)c2cc(NS(=O)(=O)c3ccc(Cl)cc3)ccc2O[C@@H](C)CCCCO[C@H]1CN(C)CC1CCCCC1 | 13.1 µM
42 | O=C(C[C@H]1CC[C@@H]2[C@H](COC[C@H](O)CN2C(=O)Nc2ccc(C(F)(F)F)cc2)O1)NCCc1ccncc1 | 3.55 µM
43 | COC(=O)[C@H]1[C@H](CO)[C@H]2Cn3c(ccc(-c4ccccc4)c3=O)[C@H]2N1CC1CCCCC1 | 16.7 µM
44 | CO[C@@H](CN(C)C(=O)C1CC1)[C@H](C)CN(C(=O)Nc1ccc(C(F)(F)F)cc1)[C@@H](C)CO | 3.04 µM
45 | O=C(C[C@H]1CC[C@H]2[C@@H](COC[C@H](O)CN2S(=O)(=O)c2ccccc2)O1)NCC1CCCCC1 | 13.5 µM
46 | CO[C@@H](CN(C)S(=O)(=O)c1cn(C)cn1)[C@@H](C)CN(C(=O)Nc1ccc(C(F)(F)F)cc1)[C@H](C)CO | 16.5 µM
47 | O=C(C[C@@H]1CC[C@@H]2[C@H](COC[C@@H](O)CN2C(=O)Nc2ccc(C(F)(F)F)cc2)O1)NC1Cc2ccccc2C1 | 2.27 µM
48 | O=C(C[C@H]1CC[C@H]2[C@@H](COC[C@H](O)CN2C(=O)Nc2ccc(Cl)c(Cl)c2)O1)NCc1ccc(Cl)c(Cl)c1 | 0.886 µM
49 | CNC(=O)C[C@H]1CC[C@H]2[C@@H](COC[C@H](O)CN2C(=O)Nc2ccc(Cl)c(Cl)c2)O1 | < 1.95 µM
50 | COc1ccc(CN(C)C[C@@H]2OCCCC[C@H](C)Oc3ccc(NC(=O)Nc4cccc5ccccc45)cc3C(=O)N([C@H](C)CO)C[C@H]2C)cc1 | 22.6 µM
51 | N#C[C@H]1[C@@H](c2ccc(C#CC3CCCC3)cc2)[C@H](CO)N1C(=O)Nc1ccc(F)cc1 | > 60 µM (inactive)
